The target in experiment [1] is T1, human vasopressin V1b receptor (Homo sapiens, UniProt P47901).
T1 construct: expressed in transfected cells; host or cells: CHO-K1 (cell line hV1b_3H2_CHO), membrane preparation
T1 sequence (P47901 1-424): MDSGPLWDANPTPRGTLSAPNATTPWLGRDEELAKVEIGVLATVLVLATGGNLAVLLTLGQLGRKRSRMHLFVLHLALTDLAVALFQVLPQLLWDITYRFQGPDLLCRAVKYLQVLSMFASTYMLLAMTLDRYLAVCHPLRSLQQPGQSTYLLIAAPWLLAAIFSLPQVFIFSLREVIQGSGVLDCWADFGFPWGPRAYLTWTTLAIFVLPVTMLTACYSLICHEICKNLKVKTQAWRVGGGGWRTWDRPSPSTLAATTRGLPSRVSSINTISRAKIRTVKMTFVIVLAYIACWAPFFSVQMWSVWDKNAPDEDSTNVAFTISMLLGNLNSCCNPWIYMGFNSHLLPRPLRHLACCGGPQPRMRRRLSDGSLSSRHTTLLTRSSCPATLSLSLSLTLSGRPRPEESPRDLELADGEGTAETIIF
As to the kind of experiment: Vasopressin V1b receptor binding assay. The note with it: CHO-K1 membranes, 3H-AVP displacement. How it is done: 1. Vasopressin V1b Receptor Binding Assay:
The test substances were dissolved in a concentration of 10^−2 M in DMSO and further diluted to 5×10^−4 M to 5×10^−3 M. These serial DMSO predilutions were diluted 1:10 with assay buffer. The substance concentration was further diluted 1:5 in the assay mixture (2% DMSO in the mixture).
CHO-K1 cells with stably expressed human vasopressin V1b receptor (clone 3H2) were harvested and homogenized in 50 mM Tris-HCl and in the presence of protease inhibitors (Roche complete Mini #1836170) using a Polytron homogenizer at intermediate setting for 2×10 seconds, and subsequently centrifuged at 40 000×g for 1 h. The membrane pellet was again homogenized and centrifuged as described and subsequently taken up in 50 mM Tris-HCl, pH 7.4, homogenized and stored in aliquots frozen in liquid nitrogen at −190° C.
(§1) The binding assay was carried out by the method based on that of Tahara et al. (Tahara A et al., Brit. J. Pharmacol. 125, 1463-1470 (1998)).
(§2) The incubation buffer was: 50 mM Tris, 10 mM MgCl2, 0.1% BSA, pH 7.4.
In the assay mixture (250 μl), membranes (50 μg/ml protein in incubation buffer) from CHO-K1 cells with stably expressed human V1b receptors (cell line hV1b—3H2_CHO) were incubated with 1.5 nM ^3H-AVP (8-Arg-vasopressin, PerkinElmer #18479) in incubation buffer (50 mM Tris, 10 mM MgCl2, 0.1% BSA, pH 7.4) (total binding) or additionally with increasing concentrations of test substance (displacement experiment). The nonspecific binding was determined with […] (Bachem #H1780). All determinations were carried out as triplicate determinations. After incubation (60 minutes at room temperature), the free radioligand was filtered off by vacuum filtration (Skatron cell harvester 7000) through Wathman GF/B glass fiber filter mats, and the filters were transferred into scintillation vials. The liquid scintillation measurement took place in a model 2000 or 2200CA Tricarb instrument (Packard). Conversion of the measured cpm into dpm was carried out with the aid of a standard quench series.
The binding parameters were calculated by nonlinear regression in SAS. The algorithms of the program operate in analogy to the LIGAND analysis program (Munson P J and Rodbard D, Analytical Biochem. 107, 220-239 (1980)). The Kd of ^3H-AVP for the recombinant human V1b receptors is 0.4 nM and was used to determine the Ki.

In experiment [2] the target is T2, human vasopressin V1a receptor (Homo sapiens, UniProt P37288).
T2 construct: expressed in transfected cells; host or cells: CHO-K1 (cell line hV1a_5_CHO), membrane preparation
Description: Vasopressin V1a receptor binding assay. Particulars: selectivity quotient, human receptors. The procedure:
2. Vasopressin V1a Receptor Binding Assay:
The test substances were dissolved in a concentration of 10^−2 M in DMSO. Further dilution of these DMSO solutions took place in incubation buffer (50 mM Tris, 10 mM MgCl2, 0.1% BSA, pH 7.4).
CHO-K1 cells with stably expressed human vasopressin V1a receptor (clone 5) were harvested and homogenized in 50 mM Tris-HCl and in the presence of protease inhibitors (Roche complete Mini #1836170) using a Polytron homogenizer at intermediate setting for 2×10 seconds, and subsequently centrifuged at 40 000×g for 1 h. The membrane pellet was again homogenized and centrifuged as described and subsequently taken up in 50 mM Tris-HCl, pH 7.4, homogenized and stored in aliquots frozen in liquid nitrogen at −190° C.
as §1, §2
In the assay mixture (250 μl), membranes (20 μg/ml protein in incubation buffer) from CHO-K1 cells with stably expressed human V1a receptors (cell line hV1a—5_CHO) were incubated with 0.04 nM ^125I-AVP (8-Arg-vasopressin, NEX 128) in incubation buffer (50 mM Tris, 10 mM MgCl2, 0.1% BSA, pH 7.4) (total binding) or additionally with increasing concentrations of test substance (displacement experiment). The nonspecific binding was determined with 1 μM AVP (Bachem #H1780). Triplicate determinations were carried out.
After incubation (60 minutes at room temperature), the free radioligand was filtered off by vacuum filtration (Skatron cell harvester 7000) through Wathman GF/B glass fiber filter mats, and the filters were transferred into scintillation vials.
The liquid scintillation measurement took place in a model 2000 or 2200CA Tricarb instrument (Packard). Conversion of the measured cpm into dpm was carried out with the aid of a standard quench series.
The binding parameters were calculated by nonlinear regression in SAS. The algorithms of the program operate in analogy to the LIGAND analysis program (Munson P J and Rodbard D, Analytical Biochem. 107, 220-239 (1980)). The Kd of ^125I-AVP for the recombinant hV1a receptors was determined in saturation experiments. A Kd of 1.33 nM was used to determine the Ki.

In another experiment the target is T3, human oxytocin receptors (Homo sapiens, UniProt P30559).
T3 construct: expressed in transfected cells; host or cells: HEK-293, transient expression; lysed and homogenized cells
T3 sequence (P30559 1-389): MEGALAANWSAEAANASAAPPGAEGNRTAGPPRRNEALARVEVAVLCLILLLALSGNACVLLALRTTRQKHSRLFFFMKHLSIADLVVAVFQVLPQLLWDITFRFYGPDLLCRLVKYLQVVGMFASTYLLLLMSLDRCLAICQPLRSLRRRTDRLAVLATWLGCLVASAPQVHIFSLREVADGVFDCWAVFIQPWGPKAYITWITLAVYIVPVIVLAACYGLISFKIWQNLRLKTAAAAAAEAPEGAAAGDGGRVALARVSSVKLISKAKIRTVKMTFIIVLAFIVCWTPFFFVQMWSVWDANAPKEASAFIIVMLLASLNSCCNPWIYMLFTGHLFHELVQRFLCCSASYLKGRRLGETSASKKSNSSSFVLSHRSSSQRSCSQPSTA
Description: Oxytocin receptor binding assay. Particulars: selectivity quotient. How it is done: 4. Oxytocin Receptor Binding Assay
The substances were dissolved in a concentration of 10^−2 M in DMSO and diluted with incubation buffer (50 mM Tris, 10 mM MgCl2, 0.1% BSA, pH 7.4).
Confluent HEK-293 cells with transiently expressing recombinant human oxytocin receptors were centrifuged at 750×g at room temperature for 5 minutes. The residue was taken up in ice-cold lysis buffer (50 mM Tris-HCl, 10% glycerol, pH 7.4 and Roche complete protease inhibitor) and subjected to an osmotic shock at 4° C. for 20 minutes. The lyzed cells were then centrifuged at 750×g at 4° C. for 20 minutes, the residue was taken up in incubation buffer, and aliquots of 10^7 cells/ml were prepared. The aliquots were frozen at −80° C. until used.
On the day of the experiment, the cells were thawed, diluted with incubation buffer and homogenized using a Multipette Combitip (Eppendorf, Hamburg). The reaction mixture of 0.250 ml was composed of 2 to 5×10^4 recombinant cells, 3-4 nM ^3H-oxytocin (PerkinElmer, NET 858) in the presence of test substance (inhibition plot) or only incubation buffer (total binding). The nonspecific binding was determined with 10^−6 M oxytocin (Bachem AG, H2510). Triplicate determinations were set up. Bound and free radioligand were separated by filtration under vacuum with Whatman GF/B glass fiber filters with the aid of a Skatron cell harvester 7000. The bound radioactivity was determined by liquid scintillation measurement in a Tricarb Beta counter, model 2000 or 2200CA (Packard).
The binding parameters were calculated by nonlinear regression analysis (SAS) in analogy to the LIGAND program of Munson and Rodbard (Analytical Biochem 1980; 107: 220-239). The Kd of ^3H-oxytocin for the recombinant hOT receptors is 7.6 nM and was used to determine the Ki.

Structures are written as SMILES. Where only a bound is given, the exact number is not on record here.

The Ki is the equilibrium dissociation constant of an inhibitor or competing ligand from its target.

T2 sequence (P37288 whole entry): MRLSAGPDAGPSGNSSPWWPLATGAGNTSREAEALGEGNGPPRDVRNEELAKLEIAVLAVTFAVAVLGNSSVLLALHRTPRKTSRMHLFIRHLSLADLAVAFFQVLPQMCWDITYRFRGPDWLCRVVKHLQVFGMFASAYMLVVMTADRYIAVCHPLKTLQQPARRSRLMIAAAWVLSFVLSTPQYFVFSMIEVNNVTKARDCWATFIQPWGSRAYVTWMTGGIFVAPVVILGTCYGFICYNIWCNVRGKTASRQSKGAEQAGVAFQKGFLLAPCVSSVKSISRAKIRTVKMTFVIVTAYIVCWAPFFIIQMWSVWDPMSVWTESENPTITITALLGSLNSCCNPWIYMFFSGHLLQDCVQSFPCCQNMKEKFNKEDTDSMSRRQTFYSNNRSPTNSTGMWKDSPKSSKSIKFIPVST

As for `CCOc1ccccc1C1(NC(=O)N2CCC(N3CCN(CC)CC3)CC2)C(=O)N(S(=O)(=O)c2ccc(OC)cc2)c2cc(F)c(C#N)cc21` (stereo not drawn) [Example 17, 4-(4-Ethylpiperazin-1-yl)piperidine-1-[5-cyano-3-(2-ethoxyphenyl)-6-fluoro-1-(4-methoxyphenylsulfonyl)-2-oxo-2,3-dihydro-1H-indol-3-yl]carboxamide], the Ki in experiment [1] is 1 to 10 nM. In experiment [2], the “Ki(h − V1a)/Ki(h − V1b)*” value is reported as “+ (10-<25)”. Also, at human oxytocin receptors, the “Ki(h − OT)/Ki(h − V1b)*” value is on record as “+++ (>75)”.

Compound `CCOc1ccccc1C1(NC(=O)N2CCC(N3CCN(CC)CC3)CC2)C(=O)N(S(=O)(=O)c2ccccc2)c2cc(F)c(C#N)cc21` (stereo not drawn) [Example 18, 4-(4-Ethylpiperazin-1-yl)piperidine-1-[1-phenylsulfonyl-5-cyano-3-(2-ethoxyphenyl)-6-fluoro-2-oxo-2,3-dihydro-1H-indol-3-yl]carboxamide] gave a Ki in experiment [1] of 1 to 10 nM. For the same compound, in experiment [2], the “Ki(h − V1a)/Ki(h − V1b)*” value is reported as “+ (10-<25)”. Also, at human oxytocin receptors, the “Ki(h − OT)/Ki(h − V1b)*” value is reported as “+++ (>75)”.

In the case of `CCOc1ncccc1C1(NC(=O)N2CCN(C3CCN(C)CC3)CC2)C(=O)N(S(=O)(=O)c2ccc(OC)cc2OC)c2cc(F)c(Cl)cc21` (stereo not drawn) [Example 19, 4-(1-Methylpiperidin-4-yl)piperazine-1-[5-chloro-1-(2,4-dimethoxyphenylsulfonyl)-3-(2-ethoxypyridin-3-yl)-6-fluoro-2-oxo-2,3-dihydro-1H-indol-3-yl]carboxamide], the Ki in experiment [1] was below 1 nM. In addition, the “Ki(h − V1a)/Ki(h − V1b)*” value in experiment [2] was “++ (25-75)”. Also, the “Ki(h − OT)/Ki(h − V1b)*” value on human oxytocin receptors is on record as “++ (25-75)”.

Take `CCOc1ncccc1C1(NC(=O)N2CCN(C3CCN(C)CC3)CC2)C(=O)N(S(=O)(=O)c2ccccc2)c2cc(F)c(Cl)cc21` (stereo not drawn) [Example 20, 4-(1-Methylpiperidin-4-yl)piperazine-1-[1-phenylsulfonyl-5-chloro-3-(2-ethoxypyridin-3-yl)-6-fluoro-2-oxo-2,3-dihydro-1H-indol-3-yl]carboxamide]: in experiment [1], the Ki lay in the range of 1 to 10 nM. Also, the “Ki(h − V1a)/Ki(h − V1b)*” value in experiment [2] is recorded as “+ (10-<25)”. For the same compound, at human oxytocin receptors, the “Ki(h − OT)/Ki(h − V1b)*” value is reported as “++ (25-75)”.

For the compound `CCOc1ncccc1C1(NC(=O)N2CCN(C3CCN(CC)CC3)CC2)C(=O)N(S(=O)(=O)c2ccc(OC)cc2OC)c2cc(F)c(Cl)cc21` (stereo not drawn) [Example 21, 4-(1-Ethylpiperidin-4-yl)piperazine-1-[5-chloro-1-(2,4-dimethoxyphenylsulfonyl)-3-(2-ethoxypyridin-3-yl)-6-fluoro-2-oxo-2,3-dihydro-1H-indol-3-yl]carboxamide], in experiment [1], the Ki was below 1 nM. Besides, the “Ki(h − V1a)/Ki(h − V1b)*” value in experiment [2] was “++ (25-75)”. Also, the “Ki(h − OT)/Ki(h − V1b)*” value on human oxytocin receptors is on record as “+++ (>75)”.

`CCOc1ncccc1C1(NC(=O)N2CCN(C3CCN(CC)CC3)CC2)C(=O)N(S(=O)(=O)c2ccccc2)c2cc(F)c(Cl)cc21` (stereo not drawn) [Example 22, 4-(1-Ethylpiperidin-4-yl)piperazine-1-[1-phenylsulfonyl-5-chloro-3-(2-ethoxypyridin-3-yl)-6-fluoro-2-oxo-2,3-dihydro-1H-indol-3-yl]carboxamide]: the Ki in experiment [1] lay within 1 to 10 nM. Moreover, the “Ki(h − V1a)/Ki(h − V1b)*” value in experiment [2] was “+ (10-<25)”. In addition, the “Ki(h − OT)/Ki(h − V1b)*” value at human oxytocin receptors is “+++ (>75)”.

In turn, `CCOc1ncccc1C1(NC(=O)N2CCC(N3CCN(C)CC3)CC2)C(=O)N(S(=O)(=O)c2ccc(OC)cc2OC)c2cc(F)c(Cl)cc21` (stereo not drawn) [Example 23, 4-(4-Methylpiperazin-1-yl)piperidine-1-[5-chloro-1-(2,4-dimethoxyphenylsulfonyl)-3-(2-ethoxypyridin-3-yl)-6-fluoro-2-oxo-2,3-dihydro-1H-indol-3-yl]carboxamide] gave a Ki in experiment [1] below 1 nM. Also, the “Ki(h − V1a)/Ki(h − V1b)*” value in experiment [2] was “+ (10-<25)”. Further, the “Ki(h − OT)/Ki(h − V1b)*” value at human oxytocin receptors is reported as “+++ (>75)”.

These data come from patent US8546401B2, “5,6-disubstituted oxindole-derivatives and use thereof for treating vasopressin-dependent diseases” (AbbVie Deutschland GmbH & Co. KG, priority 2007, dated 2013).
